# Source: ChEMBL document CHEMBL1147840, “Synthesis and bioactivity of 4-alkyl(aryl)thioquinazoline derivatives” (Bioorg Med Chem Lett, 2007)
# pIC50: −log10 of the molar value.
# Tests used:
# Type in all cases: functional, cell-based
# [1] = tested on: Bcap37; experiment: Antitumor activity against human Bcap37 cells by MTT method
# [2] = tested on: BGC-823; experiment: Antitumor activity against human BGC823 cells by MTT method
# [3] = tested on: PC-3; experiment: Antitumor activity against human PC3 cells by MTT method
SMILES,pIC50 [1],pIC50 [2],pIC50 [3]
COc1cc(-c2nnc(Sc3ncnc4ccccc34)o2)cc(OC)c1OC,4.63,4.46,5.25
COc1cc(-c2nnc(Sc3ncnc4c(OC)c(OC)c(OC)cc34)o2)cc(OC)c1OC,4.68,4.41,5.74
COc1cc(-c2nnc(Sc3ncnc4c(OC)c(OC)c(OC)cc34)s2)cc(OC)c1OC,4.46,4.51,5.06
CCCSc1ncnc2ccc(I)cc12,4.38,4.54,4.39
C=CCSc1ncnc2ccc(I)cc12,4.41,4.48,4.54
COc1cc2ncnc(Nc3cccc(Br)c3)c2cc1OC,5.05,5.16,4.86
COc1cc(-c2nnc(Sc3ncnc4ccccc34)s2)cc(OC)c1OC,4.29,4.21,4.72
COc1cccc(Sc2ncnc3ccccc23)c1,4.25,4.34,4.64
C=CCSc1ncnc2ccccc12,4.17,4.11,4.32
CCSc1ncnc2ccc(I)cc12,4.41,4.51,4.41
CCCCSc1ncnc2ccc(I)cc12,4.51,4.54,4.49
COc1cccc(Sc2ncnc3c(OC)c(OC)c(OC)cc23)c1,4.34,4.27,5.09
COc1cc(-c2nnc(Sc3ncnc4ccc(I)cc34)s2)cc(OC)c1OC,4.68,4.72,4.91
COc1cc(-c2nnc(Sc3ncnc4ccc(I)cc34)o2)cc(OC)c1OC,4.51,4.54,5.05
